Molecules are shown by their SMILES.

One experiment addresses T1, Recombinant human BACE1 (Homo sapiens, UniProt P56817).
T1 construct: purchased R&D Systems
Nature of the experiment: Assay of BACE1 inhibitory activity: 384-well. In kind it is biochemical. The settings on record: Assay format 384-well. The procedure, abridged: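 Recombinant human BACE1 was incubated 2 h at 25 °C with a biotin/Eu-cryptate-labelled peptide substrate and compound in DMSO. Streptavidin-XL665 in pH 7.0 phosphate buffer containing 0.8 mol/L KF was then added for 30 min at 25 °C for HTRF detection.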

The test system of experiment [1] is Aβ production in neuroblastoma SH-SY5Y cells (SH/APPwt). The experiment can be described thus: β-amyloid (Aβ) production inhibitory effect in cell: 384-well. Type of experiment: cell-based. The following applies: Homo sapiens, Assay format 384-well. The procedure, abridged:
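Aβ1-40 secreted by SH/APPwt neuroblastoma cells was quantified by HTRF (overnight, 4 °C, light-protected; emission 620/665 nm). Cells were exposed to compound from seeding for 21 h at 1% final DMSO.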

T1 sequence (P56817 46-501): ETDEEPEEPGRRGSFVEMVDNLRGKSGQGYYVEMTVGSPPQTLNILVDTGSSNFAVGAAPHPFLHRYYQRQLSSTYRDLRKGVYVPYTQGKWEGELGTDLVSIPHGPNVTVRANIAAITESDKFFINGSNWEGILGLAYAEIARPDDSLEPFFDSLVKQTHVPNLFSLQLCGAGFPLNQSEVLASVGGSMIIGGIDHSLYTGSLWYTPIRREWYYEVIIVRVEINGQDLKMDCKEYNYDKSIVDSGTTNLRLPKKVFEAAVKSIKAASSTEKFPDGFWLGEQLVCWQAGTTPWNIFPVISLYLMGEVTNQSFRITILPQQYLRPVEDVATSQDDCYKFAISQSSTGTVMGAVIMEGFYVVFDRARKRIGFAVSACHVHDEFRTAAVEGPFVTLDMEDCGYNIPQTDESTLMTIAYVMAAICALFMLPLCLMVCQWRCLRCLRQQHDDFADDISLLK

For orientation: IC50 means the midpoint of a concentration-inhibition curve. Turning to `C[C@H]1SC(N)=N[C@](C)(c2cc(NC(=O)c3ncc(C#N)cc3Cl)ccc2F)[C@H]1F` [Compound I-64], the IC50 on Recombinant human BACE1 was found to be 7.06 nM; in experiment [1], 0.22 nM.
As for `CC(F)(F)[C@H]1OC(N)=N[C@](C)(c2cc(NC(=O)c3cnc(OCC(F)F)cn3)ccc2F)[C@H]1F` [Compound I-77], the 50% inhibitory concentration (IC50) on Recombinant human BACE1 is 45.8 nM; in experiment [1] it was 79 nM.
For the molecule `C[C@]1(c2cc(NC(=O)c3ccc(C#N)cn3)ccc2F)N=C(N)O[C@H](C(F)(F)C2CC2)[C@@H]1F` [Compound I-81], the IC50 was found to be 16.9 nM on Recombinant human BACE1 and 21 nM in experiment [1].
The matching figures for `CO[C@H]1[C@@H](C)SC(N)=N[C@]1(C)c1cc(NC(=O)c2cnc(OCF)cn2)ccc1F` [Compound I-87]: 21.4 nM and 0.66 nM.
In the case of `C[C@H]1SC(N)=N[C@](C)(c2cccc(NC(=O)c3cnc(OCF)cn3)c2)[C@H]1F` [Compound I-104], the IC50 at Recombinant human BACE1 was 10.8 nM; in experiment [1], 0.49 nM.
The corresponding values for `C[C@]1(c2cc(NC(=O)c3ccc(C#N)cn3)ccc2F)N=C(N)SCC12CC(F)(F)C2` [Compound I-59] are 10.9 nM and 0.058 nM.
As to `CC[C@H]1SC(N)=N[C@](C)(c2cc(NC(=O)c3ccc(F)cn3)ccc2F)[C@H]1F` [Compound I-70], the IC50 on Recombinant human BACE1 was 10.6 nM; in experiment [1], 2 nM.
The matching figures for `C[C@]1(c2cc(NC(=O)c3cnc(OCF)cn3)ccc2F)N=C(N)O[C@H](C(F)(F)C2CC2)[C@@H]1F` [Compound I-82]: 25.1 nM and 17 nM.
With `CO[C@H]1[C@@H](C)SC(N)=N[C@]1(C)c1cc(NC(=O)c2ccc(F)cn2)ccc1F` [Compound I-89], the half-maximal inhibitory concentration (IC50) on Recombinant human BACE1 was 15.1 nM; in experiment [1], 1.5 nM.
On to `C[C@H]1SC(N)=N[C@](C)(c2cc(NC(=O)c3coc(CF)n3)ccc2F)[C@H]1F` [Compound I-49], for which the IC50 at Recombinant human BACE1 stood at 3.13 nM; in experiment [1], 0.025 nM.
On to `C[C@]1(c2cc(NC(=O)c3ccc(OCF)cn3)ccc2F)N=C(N)O[C@H](C2(F)CC2)[C@@H]1F` [Compound I-101], for which the IC50 on Recombinant human BACE1 was 25.3 nM; in experiment [1], 11 nM.
The corresponding values for `COc1cnc(C(=O)Nc2cccc([C@@]3(C)N=C(N)S[C@H](C)[C@@H]3F)c2)cn1` [Compound I-103] are 17.3 nM and 2.1 nM.
The corresponding values for `COc1cnc(C(=O)Nc2ccc(F)c([C@@]3(C)N=C(N)O[C@H](C(F)F)[C@@H]3C)c2)cn1` [Compound I-86] are 101 nM and 2.21 nM.
As to `C[C@]1(c2cc(NC(=O)c3ccc(C#N)cn3)ccc2F)N=C(N)O[C@H](C2(F)CC2)[C@@H]1F` [Compound I-96], the values for the IC50 (on Recombinant human BACE1; in experiment [1]) were 21.2 nM and 1.8 nM, respectively.
The matching figures for `C[C@H]1SC(N)=N[C@](C)(c2cc(NC(=O)c3cnc(OCC4CC4)cn3)ccc2F)[C@H]1F` [Compound I-85]: 15.4 nM and 4.8 nM.
The corresponding values for `CC#CCOc1cnc(C(=O)Nc2ccc(F)c([C@@]3(C)N=C(N)O[C@H](C(C)(F)F)[C@@H]3F)c2)cn1` [Compound I-76] are 3.77 nM and 1.6 nM.
The corresponding values for `C[C@H]1SC(N)=N[C@](C)(c2cccc(NC(=O)c3cnc(C(F)F)cn3)c2)[C@H]1F` [Compound I-106] are 19.4 nM and 2.6 nM.
Consider `CC[C@H]1SC(N)=N[C@](C)(c2cc(NC(=O)c3ccc(OCF)cn3)ccc2F)[C@H]1F` [Compound I-67], for which the IC50 was 5.47 nM on Recombinant human BACE1 and 0.56 nM in experiment [1].
On to `COc1ccc(C(=O)Nc2ccc(F)c([C@@]3(C)N=C(N)S[C@H](C)[C@@H]3F)c2)nc1` [Compound I-50], for which the half-inhibitory concentration (IC50) came out at 7.77 nM on Recombinant human BACE1 and 0.39 nM in experiment [1].
The matching figures for `C[C@H]1SC(N)=N[C@](C)(c2cc(NC(=O)c3ccc(OCF)cn3)ccc2F)[C@H]1F` [Compound I-51]: 17.5 nM and 0.41 nM.

The values are drawn from US20170073337A1, “DIHYDROTHIAZINE AND DIHYDROOXAZINE DERIVATIVES HAVING BACE1 INHIBITORY ACTIVITY” (Shionogi & Co., Ltd., priority 2014, published 2017).
